Data: patent US9211310B2, “Use of a Chinese medicine composition in preparing medicaments for treating secondary prevention of myocardial infarction” (TASLY PHARMACEUTICAL GROUP CO., LTD, priority 2010, dated 2015)

System: patients after acute myocardial infarction
Test: Life quality, Seattle Angina Questionnaire (SAQ), same clinical trial
Format: in vivo, human
Details: FAS
Description: 3508 patients who were in accordance with the diagnostic standards of AMI for 28 days to 2 years and differentiated as Qi deficiency and blood stagnation syndrome by TCM were studied. 0.5 g Chinese medicine composition prepared by the method of EXAMPLE 1 (Coded as QSYQ) was administrated half an hour after meal, 3 times per day.
There were 19 questions in the Seattle angina questionnaire (SAQ), including 5 parts: physical limitation (PL), anginal stability (AS), anginal frequency (AF), treatment satisfaction (TS) and disease perception (DP). After being given necessary explanation by doctors, the questions were answered independently by patients.
They included the overall survival time, angina pectoris score, TCM symptom score and life quality score, where angina pectoris score, TCM symptom score and life quality score were evaluated at randomization, in 1st, 3rd, 6th, 9th, 12th month after treatment and 18th month after follow-up.
All evaluation results of SAQ were described during the period of observation, and Wilcoxon rank sum test was used for inter-group comparison.
The evaluation results in the SAQ were depicted in different observations, and inter-group comparison was tested by Wilcoxon Rank-sum test.

Question: Which “SAQ Question 1-8: Mildly limited, patients (%)” value (6 months after treatment) does the source give for `CC(=O)Oc1ccccc1C(=O)O` [Control group, aspirine] here?
Answer: The value was “(25.30%)”.

Question: And the “SAQ Question 1-8: Moderately limited, patients (%)” value (6 months after treatment)?
Answer: Its value is “(16.42%)”.

Question: What about the “SAQ Question 1-8: Not limited, patients (%)” value (6 months after treatment) of the same compound?
Answer: Its value is “(10.62%)”.

Question: And the “SAQ Question 1-8: Other reasons, patients (%)” value (6 months after treatment)?
Answer: Its value is “(3.77%)”.

Question: And the “SAQ Question 1-8: Severely limited, patients (%)” value (6 months after treatment)?
Answer: The value was “(19.38%)”.

Question: What about the “SAQ Question 1-8: Slightly limited, patients (%)” value (6 months after treatment) of the same compound?
Answer: The value was “(24.49%)”.

Question: What about the “8th question: Mostly satisfied, patients (%)” value (6 months after treatment, second line of the scale) of the same compound?
Answer: Its value is “(2.24%)”.

Question: And the “8th question: Dissatisfied, patients (%)” value (9 months after treatment)?
Answer: The value was “(0.34%)”.

Question: What about the “8th question: Highly satisfied, patients (%)” value (9 months after treatment) of the same compound?
Answer: Its value is “(22.36%)”.

Question: What about the “8th question: Mostly dissatisfied, patients (%)” value (9 months after treatment) of the same compound?
Answer: The value was “(1.89%)”.

Question: What about the “8th question: Mostly satisfied, patients (%)” value (9 months after treatment) of the same compound?
Answer: The value was “(58.31%)”.

Question: What about the “8th question: Partly satisfied, patients (%)” value (9 months after treatment) of the same compound?
Answer: The value was “(17.09%)”.

Question: And the “9th question: Few, patients (%)” value (9 months after treatment)?
Answer: Its value is “(37.79%)”.

Question: What about the “9th question: Mild, patients (%)” value (9 months after treatment) of the same compound?
Answer: Its value is “(33.08%)”.

Question: What about the “9th question: Moderate, patients (%)” value (9 months after treatment) of the same compound?
Answer: The value was “(8.77%)”.

Question: And the “9th question: Severe, patients (%)” value (9 months after treatment)?
Answer: Its value is “(0.97%)”.

Question: What about the “9th question: Uneffective, patients (%)” value (9 months after treatment) of the same compound?
Answer: Its value is “(19.38%)”.

Question: What about the “10th question: Dissatisfied, patients (%)” value (9 months after treatment) of the same compound?
Answer: Its value is “(19.55%)”.

Question: And the “10th question: Highly satisfied, patients (%)” value (9 months after treatment)?
Answer: Its value is “(5.73%)”.

Question: What about the “10th question: Mostly dissatisfied, patients (%)” value (9 months after treatment) of the same compound?
Answer: Its value is “(20.47%)”.

Question: And the “10th question: Mostly satisfied, patients (%)” value (9 months after treatment)?
Answer: Its value is “(28.84%)”.

Question: And the “10th question: Partly satisfied, patients (%)” value (9 months after treatment)?
Answer: The value was “(25.40%)”.

Question: And the “11th question: Continuously worried, patients (%)” value (9 months after treatment)?
Answer: The value was “(3.44%)”.

Question: What about the “11th question: No worried, patients (%)” value (9 months after treatment) of the same compound?
Answer: The value was “(6.02%)”.

Question: What about the “11th question: Occasionally worried, patients (%)” value (9 months after treatment) of the same compound?
Answer: Its value is “(41.80%)”.

Question: What about the “11th question: Often worried, patients (%)” value (9 months after treatment) of the same compound?
Answer: The value was “(12.33%)”.

Question: And the “11th question: Seldom worried, patients (%)” value (9 months after treatment)?
Answer: The value was “(36.41%)”.

Question: And the “SAQ 4th question, 1-2 times per week: % of patients” value (9 months after treatment)?
Answer: Its value is “(15.60%)”.

Question: And the “SAQ 4th question, 1-2 times per week: number of patients” value (9 months after treatment)?
Answer: Its value is 272.

Question: And the “SAQ 4th question, 1-3 times per week: % of patients” value (9 months after treatment)?
Answer: Its value is “(4.30%)”.

Question: What about the “SAQ 4th question, 1-3 times per week: number of patients” value (9 months after treatment) of the same compound?
Answer: Its value is 75.

Question: What about the “SAQ 4th question, <1 time per week: % of patients” value (9 months after treatment) of the same compound?
Answer: The value was “(15.14%)”.

Question: And the “SAQ 4th question, <1 time per week: number of patients” value (9 months after treatment)?
Answer: The value was 264.

Question: And the “SAQ 4th question, Not used: % of patients” value (9 months after treatment)?
Answer: Its value is “(59.69%)”.

Question: And the “SAQ 4th question, Not used: number of patients” value (9 months after treatment)?
Answer: Its value is 1041.

Question: And the “SAQ 4th question, ≧3 times per week: % of patients” value (9 months after treatment)?
Answer: Its value is “(5.16%)”.

Question: And the “SAQ 4th question, ≧3 times per week: number of patients” value (9 months after treatment)?
Answer: Its value is 90.

Question: And the “SAQ 4th question, ≧4 times per day: % of patients” value (9 months after treatment)?
Answer: The value was “(0.11%)”.

Question: And the “SAQ 4th question, ≧4 times per day: number of patients” value (9 months after treatment)?
Answer: The value was 2.

Question: And the “SAQ 5th question, 1-2 times per week: % of patients” value (9 months after treatment)?
Answer: Its value is “(28.67%)”.

Question: What about the “SAQ 5th question, 1-2 times per week: number of patients” value (9 months after treatment) of the same compound?
Answer: The value was 500.

Question: What about the “SAQ 5th question, 1-3 times per day: % of patients” value (9 months after treatment) of the same compound?
Answer: The value was “(7.97%)”.

Question: And the “SAQ 5th question, 1-3 times per day: number of patients” value (9 months after treatment)?
Answer: The value was 139.

Question: And the “SAQ 5th question, <1 time per week: % of patients” value (9 months after treatment)?
Answer: Its value is “(28.56%)”.

Question: And the “SAQ 5th question, <1 time per week: number of patients” value (9 months after treatment)?
Answer: Its value is 498.

Question: What about the “SAQ 5th question, No onset: % of patients” value (9 months after treatment) of the same compound?
Answer: The value was “(4.47%)”.

Question: And the “SAQ 5th question, No onset: number of patients” value (9 months after treatment)?
Answer: The value was 78.

Question: And the “SAQ 5th question, ≧3 times per week: % of patients” value (9 months after treatment)?
Answer: The value was “(29.42%)”.

Question: And the “SAQ 5th question, ≧3 times per week: number of patients” value (9 months after treatment)?
Answer: The value was 513.

Question: What about the “SAQ 5th question, ≧4 times per day: % of patients” value (9 months after treatment) of the same compound?
Answer: Its value is “(0.92%)”.

Question: What about the “SAQ 5th question, ≧4 times per day: number of patients” value (9 months after treatment) of the same compound?
Answer: The value was 16.

Question: What about the “SAQ 6th question, Dissatisfied: % of patients” value (9 months after treatment) of the same compound?
Answer: The value was “(0.23%)”.

Question: What about the “SAQ 6th question, Dissatisfied: number of patients” value (9 months after treatment) of the same compound?
Answer: The value was 4.

Question: What about the “SAQ 6th question, Highly satisfied: % of patients” value (9 months after treatment) of the same compound?
Answer: The value was “(23.62%)”.

Question: And the “SAQ 6th question, Highly satisfied: number of patients” value (9 months after treatment)?
Answer: Its value is 412.

Question: What about the “SAQ 6th question, Mostly dissatisfied: % of patients” value (9 months after treatment) of the same compound?
Answer: The value was “(1.95%)”.

Question: And the “SAQ 6th question, Mostly dissatisfied: number of patients” value (9 months after treatment)?
Answer: The value was 34.

Question: And the “SAQ 6th question, Mostly satisfied: % of patients” value (9 months after treatment)?
Answer: The value was “(58.77%)”.

Question: And the “SAQ 6th question, Mostly satisfied: number of patients” value (9 months after treatment)?
Answer: The value was 1025.

Question: And the “SAQ 6th question, Partly satisfied: % of patients” value (9 months after treatment)?
Answer: Its value is “(15.42%)”.

Question: And the “SAQ 6th question, Partly satisfied: number of patients” value (9 months after treatment)?
Answer: Its value is 269.

Question: What about the “SAQ 7th question, Dissatisfied: % of patients” value (9 months after treatment) of the same compound?
Answer: Its value is “(0.11%)”.

Question: What about the “SAQ 7th question, Dissatisfied: number of patients” value (9 months after treatment) of the same compound?
Answer: Its value is 2.

Question: And the “SAQ 7th question, Highly satisfied: % of patients” value (9 months after treatment)?
Answer: Its value is “(27.21%)”.

Question: And the “SAQ 7th question, Highly satisfied: number of patients” value (9 months after treatment)?
Answer: Its value is 474.

Question: What about the “SAQ 7th question, Most dissatisfied: % of patients” value (9 months after treatment) of the same compound?
Answer: Its value is “(1.09%)”.

Question: What about the “SAQ 7th question, Most dissatisfied: number of patients” value (9 months after treatment) of the same compound?
Answer: The value was 19.

Question: And the “SAQ 7th question, Mostly satisfied: % of patients” value (9 months after treatment)?
Answer: The value was “(59.53%)”.

Question: What about the “SAQ 7th question, Mostly satisfied: number of patients” value (9 months after treatment) of the same compound?
Answer: The value was 1037.

Question: What about the “SAQ 7th question, Partly satisfied: % of patients” value (9 months after treatment) of the same compound?
Answer: The value was “(12.06%)”.

Question: What about the “SAQ 7th question, Partly satisfied: number of patients” value (9 months after treatment) of the same compound?
Answer: The value was 210.

Question: What about the “SAQ Question 1-1 Mildly limited, number of patients” value (9 months after treatment) of the same compound?
Answer: The value was 25.

Question: And the “SAQ Question 1-1 Mildly limited, percent of patients” value (9 months after treatment)?
Answer: Its value is “(1.43%)”.

Question: What about the “SAQ Question 1-1 Moderately limited, number of patients” value (9 months after treatment) of the same compound?
Answer: The value was 5.

Question: And the “SAQ Question 1-1 Moderately limited, percent of patients” value (9 months after treatment)?
Answer: The value was “(0.29%)”.

Question: What about the “SAQ Question 1-1 Not limited, number of patients” value (9 months after treatment) of the same compound?
Answer: Its value is 1643.

Question: And the “SAQ Question 1-1 Not limited, percent of patients” value (9 months after treatment)?
Answer: The value was “(94.21%)”.

Question: And the “SAQ Question 1-1 Other reasons, number of patients” value (9 months after treatment)?
Answer: Its value is 3.
